The text below walks through data of patent US10544143B2, “4-azaindole compounds” (BRISTOL-MYERS SQUIBB COMPANY, priority 2017, dated 2020).

The target of test [1] is human TLR9 (Homo sapiens (Human), UniProt Q9NR96). The experiment in a line: TLR9 inhibition reporter assay (HEK-Blue SEAP).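 Note: SEAP driven by an IFN-β minimal promoter with NF-κB and AP-1 sites, read after 22 h, compounds dosed 0.05 nM–50 µM, inhibition scaled between agonist plus DMSO and reference-inhibitor wells.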 Particulars: read-out: TLR9 IC50; HEK-Blue cells overexpressing human TLR9, ODN2006 5 nM stimulation, SEAP reporter.
Chain of human TLR9 (Q9NR96 26-1032): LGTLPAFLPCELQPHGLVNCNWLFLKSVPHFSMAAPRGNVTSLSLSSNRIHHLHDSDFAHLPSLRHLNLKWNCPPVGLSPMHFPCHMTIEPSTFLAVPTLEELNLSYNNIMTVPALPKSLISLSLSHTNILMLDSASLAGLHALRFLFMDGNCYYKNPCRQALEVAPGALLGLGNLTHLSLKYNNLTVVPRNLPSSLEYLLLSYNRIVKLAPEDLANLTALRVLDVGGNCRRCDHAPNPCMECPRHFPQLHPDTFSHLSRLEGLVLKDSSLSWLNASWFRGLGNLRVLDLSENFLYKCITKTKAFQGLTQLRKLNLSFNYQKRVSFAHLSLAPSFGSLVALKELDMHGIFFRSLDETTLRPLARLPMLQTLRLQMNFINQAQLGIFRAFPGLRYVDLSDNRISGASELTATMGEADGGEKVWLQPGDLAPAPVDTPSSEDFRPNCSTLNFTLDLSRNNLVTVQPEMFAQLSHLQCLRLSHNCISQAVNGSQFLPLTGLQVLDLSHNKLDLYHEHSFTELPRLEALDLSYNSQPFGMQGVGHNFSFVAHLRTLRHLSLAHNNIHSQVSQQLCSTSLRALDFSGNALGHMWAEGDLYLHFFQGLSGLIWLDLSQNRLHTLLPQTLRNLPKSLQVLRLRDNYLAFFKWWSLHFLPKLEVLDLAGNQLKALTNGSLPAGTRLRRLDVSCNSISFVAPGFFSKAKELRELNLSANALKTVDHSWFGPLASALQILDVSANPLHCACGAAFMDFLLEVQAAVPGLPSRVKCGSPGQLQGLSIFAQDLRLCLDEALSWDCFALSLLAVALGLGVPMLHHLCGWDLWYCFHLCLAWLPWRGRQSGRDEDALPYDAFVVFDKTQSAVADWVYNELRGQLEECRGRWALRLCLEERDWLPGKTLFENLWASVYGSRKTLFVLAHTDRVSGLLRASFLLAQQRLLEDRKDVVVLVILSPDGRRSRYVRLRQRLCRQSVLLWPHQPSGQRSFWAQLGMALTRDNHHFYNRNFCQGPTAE
Protocol: HEK-Blue™-cells (Invivogen) overexpressing human TLR7, TLR8 or TLR9 receptors were used for screening inhibitors of these receptors using an inducible SEAP (secreted embryonic alkaline phosphatase) reporter gene under the control of the IFN-β minimal promoter fused to five NF-κB and AP-1-binding sites. Briefly, cells are seeded into Greiner 384 well plates (15000 cells per well for TLR7, 20,000 for TLR8 and 25,000 for TLR9) and then treated with test compounds in DMSO to yield a final dose response concentration range of 0.05 nM-50 μM. After a 30 minute compound pre-treatment at room temperature, the cells are then stimulated with a TLR7 ligand (gardiquimod at a final concentration of 7.5 μM), TLR8 ligand (R848 at a final concentration of 15.9 μM) or TLR9 ligand (ODN2006 at a final concentration of 5 nM) to activate NF-κB and AP-1 which induce the production of SEAP. After a 22 hour incubation at 37° C., 5% CO2, SEAP levels are determined with the addition of HEK-Blue™ Detection reagent (Invivogen), a cell culture medium that allows for detection of SEAP, according to manufacturer's specifications.
In test [2] the target is human TLR8 (Homo sapiens (Human), UniProt Q9NR97). The experiment in a line: TLR8 inhibition reporter assay (HEK-Blue SEAP).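 Note: SEAP driven by IFN-β minimal promoter carrying NF-κB and AP-1 sites, compounds dosed 0.05 nM to 50 µM for 22 h, inhibition scaled between agonist-plus-DMSO and reference-inhibitor wells.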 Particulars: read-out: TLR8 IC50; HEK-Blue cells overexpressing human TLR8, R848 15.9 μM stimulation, SEAP reporter.
Chain of human TLR8 (Q9NR97 27-1041): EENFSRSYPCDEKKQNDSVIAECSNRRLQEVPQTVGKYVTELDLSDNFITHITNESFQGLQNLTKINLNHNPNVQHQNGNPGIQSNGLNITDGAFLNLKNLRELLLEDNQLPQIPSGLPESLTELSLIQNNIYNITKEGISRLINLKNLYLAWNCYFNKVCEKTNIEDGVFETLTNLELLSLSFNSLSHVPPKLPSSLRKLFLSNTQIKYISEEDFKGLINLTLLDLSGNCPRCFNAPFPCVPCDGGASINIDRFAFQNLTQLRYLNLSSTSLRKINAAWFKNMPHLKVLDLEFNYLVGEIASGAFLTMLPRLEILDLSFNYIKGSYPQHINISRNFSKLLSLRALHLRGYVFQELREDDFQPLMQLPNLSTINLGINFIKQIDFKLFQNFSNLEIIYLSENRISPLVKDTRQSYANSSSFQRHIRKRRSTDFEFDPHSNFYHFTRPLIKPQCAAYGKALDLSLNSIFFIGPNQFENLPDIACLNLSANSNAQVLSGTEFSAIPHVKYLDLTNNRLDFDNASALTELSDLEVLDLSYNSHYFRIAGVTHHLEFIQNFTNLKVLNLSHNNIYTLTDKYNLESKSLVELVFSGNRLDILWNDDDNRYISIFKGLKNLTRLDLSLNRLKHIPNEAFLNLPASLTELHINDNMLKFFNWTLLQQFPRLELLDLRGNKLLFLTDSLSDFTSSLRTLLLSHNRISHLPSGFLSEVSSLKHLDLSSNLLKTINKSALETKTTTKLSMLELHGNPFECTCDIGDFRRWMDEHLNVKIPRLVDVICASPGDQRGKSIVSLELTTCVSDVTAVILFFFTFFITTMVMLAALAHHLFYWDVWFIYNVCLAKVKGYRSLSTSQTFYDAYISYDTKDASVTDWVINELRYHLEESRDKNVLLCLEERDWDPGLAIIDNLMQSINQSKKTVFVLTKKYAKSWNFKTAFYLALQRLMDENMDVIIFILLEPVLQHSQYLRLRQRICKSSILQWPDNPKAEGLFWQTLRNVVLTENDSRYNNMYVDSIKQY
Test [3] has as its target human TLR7 (Homo sapiens (Human), UniProt Q9NYK1). Nature of the test: TLR7 inhibition reporter assay (HEK-Blue SEAP). Type of test: cell-based. Particulars: HEK-Blue cells overexpressing human TLR7, gardiquimod 7.5 μM stimulation, SEAP reporter.

Molecules are shown by their SMILES.

Chain of human TLR7 (Q9NYK1 27-1049): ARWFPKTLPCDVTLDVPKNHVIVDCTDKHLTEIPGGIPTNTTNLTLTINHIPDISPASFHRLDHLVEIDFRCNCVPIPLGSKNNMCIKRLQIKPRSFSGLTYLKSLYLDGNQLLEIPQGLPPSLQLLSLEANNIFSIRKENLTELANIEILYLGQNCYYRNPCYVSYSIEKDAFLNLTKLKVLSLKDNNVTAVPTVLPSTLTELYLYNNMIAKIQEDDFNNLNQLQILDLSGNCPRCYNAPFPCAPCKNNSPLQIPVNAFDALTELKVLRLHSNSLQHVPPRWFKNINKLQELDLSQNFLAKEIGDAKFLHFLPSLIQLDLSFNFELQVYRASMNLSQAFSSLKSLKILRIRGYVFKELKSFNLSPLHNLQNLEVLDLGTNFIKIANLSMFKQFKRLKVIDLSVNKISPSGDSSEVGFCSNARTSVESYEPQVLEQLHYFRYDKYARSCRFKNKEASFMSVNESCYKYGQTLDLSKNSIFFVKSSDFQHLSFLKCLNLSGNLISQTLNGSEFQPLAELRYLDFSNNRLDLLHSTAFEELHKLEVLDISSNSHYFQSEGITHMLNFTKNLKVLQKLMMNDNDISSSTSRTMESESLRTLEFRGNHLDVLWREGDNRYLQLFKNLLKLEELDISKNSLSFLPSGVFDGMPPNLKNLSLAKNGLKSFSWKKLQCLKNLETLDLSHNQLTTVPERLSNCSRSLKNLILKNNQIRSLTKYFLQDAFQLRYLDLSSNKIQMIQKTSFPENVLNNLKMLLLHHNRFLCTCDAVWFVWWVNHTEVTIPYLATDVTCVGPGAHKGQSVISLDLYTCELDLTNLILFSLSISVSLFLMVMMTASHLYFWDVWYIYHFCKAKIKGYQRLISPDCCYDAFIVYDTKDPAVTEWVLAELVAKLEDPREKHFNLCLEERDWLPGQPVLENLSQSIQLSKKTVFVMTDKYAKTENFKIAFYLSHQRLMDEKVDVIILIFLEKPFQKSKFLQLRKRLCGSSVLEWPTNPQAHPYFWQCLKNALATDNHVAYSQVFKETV

Consider `CC(C)c1c(-c2cn(CCS(C)(=O)=O)c3ncccc23)[nH]c2ccc(C3CCC(O)CC3)nc12` (stereo not drawn) [Example 260], for which the concentration for half-maximal inhibition (IC50) in test [1] was found to be 10900 nM; in test [2], 173 nM; in test [3] it was 527 nM.

On to `CC(C)c1c(-c2cn(CCS(C)(=O)=O)c3ncccc23)[nH]c2ccc(C3CCC(NCC(=O)N(C)C)CC3)nc12` (stereo not drawn) [Example 261], for which the IC50 in test [1] came out at 381 nM; in test [2], 90 nM; in test [3], 262 nM.

As for `CC(C)c1c(-c2cn(CCS(C)(=O)=O)c3ncccc23)[nH]c2ccc(C3CCC(NCC4(S(C)(=O)=O)CC4)CC3)nc12` (stereo not drawn) [Example 262], the IC50 in test [1] worked out at 354 nM; in test [2], 19 nM; in test [3], 170 nM.

As to `CNC1CCC(c2ccc3[nH]c(-c4cn(CC#N)c5ncccc45)c(C(C)C)c3n2)CC1` (stereo not drawn) [Example 263], the IC50 in test [1] amounted to 338 nM; in test [2], 7.6 nM; in test [3] it was 6.2 nM.

In the case of `CNC1CCC(c2ccc3[nH]c(-c4cn(CCS(C)(=O)=O)c5ncccc45)c(C(C)C)c3n2)CC1` (stereo not drawn) [Example 264], the figures for the IC50 in test [1], in test [2] and in test [3] were 255 nM, 42 nM and 55 nM, respectively.

For `CC(C)c1c(-c2cn(C)c3ncccc23)[nH]c2ccc(C3CCC(NC4CCOCC4)CC3)nc12` (stereo not drawn) [Example 265], the values for the concentration for half-maximal inhibition (IC50) in test [1], in test [2] and in test [3] were 392 nM, 0.91 nM and 0.59 nM, respectively.

For the compound `CC(C)c1c(-c2cn(CCS(C)(=O)=O)c3ncccc23)[nH]c2ccc(C3CCC(NC4CCOCC4)CC3)nc12` (stereo not drawn) [Example 266], the values for the half-inhibitory concentration (IC50) in test [1], in test [2] and in test [3] were 322 nM, 13 nM and 45 nM, respectively.

Take `CC(C)c1c(-c2cn(C)c3ncccc23)[nH]c2ccc(C3CCC(NC4CCOCC4)CC3)nc12` (stereo not drawn) [Example 267]: the IC50 in test [1] turned out to be 453 nM; in test [2], 2.6 nM; in test [3] it was 1.9 nM.

For the compound `CC(C)c1c(-c2cn(CC#N)c3ncccc23)[nH]c2ccc(C3CCC(NC4CCOCC4)CC3)nc12` (stereo not drawn) [Example 268], the values for the IC50 in test [1], in test [2] and in test [3] were 578 nM, 32 nM and 94 nM, respectively.

For `CNC1CCC(c2ccc3[nH]c(-c4cn(CCS(C)(=O)=O)c5ncccc45)c(C(C)C)c3n2)CC1` (stereo not drawn) [Example 269], the 50% inhibitory concentration (IC50) turned out to be 670 nM in test [1], 88 nM in test [2] and 223 nM in test [3].

Consider `CNC1CCC(c2ccc3[nH]c(-c4cn(CC#N)c5ncccc45)c(C(C)C)c3n2)CC1` (stereo not drawn) [Example 270], for which the IC50 was 322 nM in test [1], 28 nM in test [2] and 38 nM in test [3].

With `CC(C)c1c(-c2cn(CCS(C)(=O)=O)c3ncccc23)[nH]c2ccc(C3CCC(NC4CCCOC4)CC3)nc12` (stereo not drawn) [Example 271], the results for the half-maximal inhibitory concentration (IC50) in test [1], in test [2] and in test [3] were 228 nM, 40 nM and 120 nM, respectively.

For the compound `CC(C)c1c(-c2cn(CC#N)c3ncccc23)[nH]c2ccc(C3CCC(NCC(=O)N(C)C)CC3)nc12` (stereo not drawn) [Example 272], the figures for the IC50 in test [1], in test [2] and in test [3] were 398 nM, 50 nM and 76 nM, respectively.

Take `CC(C)c1c(-c2cn(CC#N)c3ncccc23)[nH]c2ccc(C3CCC(NCCS(C)(=O)=O)CC3)nc12` (stereo not drawn) [Example 273]: the 50% inhibitory concentration (IC50) worked out at 1110 nM in test [1], 66 nM in test [2] and 75 nM in test [3].

With `CC(C)c1c(-c2cn(CC#N)c3ncccc23)[nH]c2ccc(C3CCC(NC4CCCOC4)CC3)nc12` (stereo not drawn) [Example 274], the IC50 in test [1] came to 474 nM; in test [2] it was 3.7 nM; in test [3], 8.5 nM.

Turning to `CC(C)c1c(-c2cn(CC#N)c3ncccc23)[nH]c2ccc(C3CCC(NCCS(C)(=O)=O)CC3)nc12` (stereo not drawn) [Example 275], the IC50 in test [1] was determined as 684 nM; in test [2], 8.5 nM; in test [3] it was 14 nM.

For `CC(C)c1c(-c2cn(CC#N)c3ncccc23)[nH]c2ccc(C3CCC(NCC(=O)N(C)C)CC3)nc12` (stereo not drawn) [Example 276], the IC50 in test [1] turned out to be 309 nM; in test [2] it was 9 nM; in test [3], 8.9 nM.

Turning to `COc1cc(-c2[nH]c3ccc(C4CCC(N(CC#N)C5COC5)CC4)nc3c2C(C)C)cn2ncnc12` (stereo not drawn) [Example 277], the IC50 in test [1] amounted to 1380 nM; in test [2] it was 1.6 nM; in test [3], 0.4 nM.

`CC(C)c1c(-c2cn(C)c3ncccc23)[nH]c2ccc(C3CCC(NCC(C)(C)S(C)(=O)=O)CC3)nc12` (stereo not drawn) [Example 278]: the IC50 worked out at 837 nM in test [1], 1.2 nM in test [2] and 1.5 nM in test [3].

In the case of `Cc1cc(-c2[nH]c3ccc(C4CCC(NC5COC5)CC4)nc3c2C(C)C)cn2ncnc12` (stereo not drawn) [Example 279], the figures for the 50% inhibitory concentration (IC50) in test [1], in test [2] and in test [3] were 1820 nM, 1.4 nM and 0.31 nM, respectively.

For `Cc1cc(-c2[nH]c3ccc(C4CCC(NCC(=O)N(C)C)CC4)nc3c2C(C)C)cn2ncnc12` (stereo not drawn) [Example 280], the concentration for half-maximal inhibition (IC50) was 1270 nM in test [1], 7.2 nM in test [2] and 1.1 nM in test [3].

Consider `Cc1cc(-c2[nH]c3ccc(C4CCC(N5CC6(COC6)C5)CC4)nc3c2C(C)C)cn2ncnc12` (stereo not drawn) [Example 281], for which the results for the IC50 in test [1], in test [2] and in test [3] were 880 nM, 1.7 nM and 0.48 nM, respectively.

Turning to `Cc1cc(-c2[nH]c3ccc(C4CCC(NC5COC5)CC4)nc3c2C(C)C)cc(C)n1` (stereo not drawn) [Example 282], the values for the half-maximal inhibitory concentration (IC50) in test [1], in test [2] and in test [3] were 661 nM, 0.91 nM and 0.32 nM, respectively.

For the compound `Cc1cc(-c2[nH]c3ccc(C4CCC(N5CC6(COC6)C5)CC4)nc3c2C(C)C)cc(C)n1` (stereo not drawn) [Example 283], the IC50 turned out to be 298 nM in test [1], 1.4 nM in test [2] and 0.92 nM in test [3].

For `Cc1cc(-c2[nH]c3ccc(C4CCC(NC5COC5)CC4)nc3c2C(C)C)cn2ncnc12` (stereo not drawn) [Example 284], the values for the IC50 in test [1], in test [2] and in test [3] were 4040 nM, 15 nM and 3 nM, respectively.

On to `CC(C)c1c(-c2cn(C)c3ncccc23)[nH]c2ccc(C3CCC(NCC(C)(C)S(C)(=O)=O)CC3)nc12` (stereo not drawn) [Example 285], for which the values for the IC50 in test [1], in test [2] and in test [3] were 2310 nM, 5.5 nM and 3.6 nM, respectively.

For the compound `Cc1cc(-c2[nH]c3ccc(C4CCC(N5CC6(COC6)C5)CC4)nc3c2C(C)C)cc(C)n1` (stereo not drawn) [Example 286], the values for the IC50 in test [1], in test [2] and in test [3] were 1570 nM, 9.2 nM and 5.2 nM, respectively.

For `Cc1cc(-c2[nH]c3ccc(C4CCC(NC5COC5)CC4)nc3c2C(C)C)cc(C)n1` (stereo not drawn) [Example 287], the IC50 in test [1] was determined as 2360 nM; in test [2], 33 nM; in test [3] it was 25 nM.

Turning to `Cc1cc(-c2[nH]c3ccc(C4CCC(N5CC6(COC6)C5)CC4)nc3c2C(C)C)cn2ncnc12` (stereo not drawn) [Example 288], the concentration for half-maximal inhibition (IC50) worked out at 6450 nM in test [1], 114 nM in test [2] and 28 nM in test [3].

In the case of `CCn1cc(-c2[nH]c3ccc(C4CCC(NC5CCOCC5)CC4)nc3c2C(C)C)c2cccnc21` (stereo not drawn) [Example 289], the IC50 in test [1] was determined as 967 nM; in test [2], 11 nM; in test [3] it was 3.5 nM.

On to `CCn1cc(-c2[nH]c3ccc(C4CCC(N5CC6(COC6)C5)CC4)nc3c2C(C)C)c2cccnc21` (stereo not drawn) [Example 290], for which the 50% inhibitory concentration (IC50) was 425 nM in test [1], 6.3 nM in test [2] and 2.1 nM in test [3].

On to `CCn1cc(-c2[nH]c3ccc(C4CCC(NCC(=O)N(C)C)CC4)nc3c2C(C)C)c2cccnc21` (stereo not drawn) [Example 291], for which the results for the concentration for half-maximal inhibition (IC50) in test [1], in test [2] and in test [3] were 735 nM, 11 nM and 2.6 nM, respectively.

With `CCn1cc(-c2[nH]c3ccc(C4CCC(NC5CCOCC5)CC4)nc3c2C(C)C)c2cccnc21` (stereo not drawn) [Example 292], the IC50 in test [1] turned out to be 1620 nM; in test [2], 127 nM; in test [3], 99 nM.

For `CCn1cc(-c2[nH]c3ccc(C4CCC(O)CC4)nc3c2C(C)C)c2cccnc21` (stereo not drawn) [Example 293], the concentration for half-maximal inhibition (IC50) in test [1] was determined as 5640 nM; in test [2] it was 208 nM; in test [3], 75 nM.

For the compound `CCn1cc(-c2[nH]c3ccc(C4CCC(N5CC6(COC6)C5)CC4)nc3c2C(C)C)c2cccnc21` (stereo not drawn) [Example 294], the 50% inhibitory concentration (IC50) in test [1] came to 2270 nM; in test [2], 174 nM; in test [3] it was 85 nM.

`CNC1CCC(c2ccc3[nH]c(-c4cn(CCO)c5ncccc45)c(C(C)C)c3n2)CC1` (stereo not drawn) [Example 295]: the IC50 in test [1] was determined as 883 nM; in test [2], 11 nM; in test [3], 11 nM.

On to `CNC1CCC(c2ccc3[nH]c(-c4cn(C)c5ncncc45)c(C(C)C)c3n2)CC1` (stereo not drawn) [Example 296], for which the IC50 in test [1] amounted to 600 nM; in test [2], 6.8 nM; in test [3] it was 0.59 nM.

Turning to `CNC1CCC(c2ccc3[nH]c(-c4cn(C)c5nccnc45)c(C(C)C)c3n2)CC1` (stereo not drawn) [Example 297], the concentration for half-maximal inhibition (IC50) in test [1] was 885 nM; in test [2] it was 15 nM; in test [3], 8.4 nM.

Regarding `CNC1CCC(c2ccc3[nH]c(-c4cn(CCO)c5ncccc45)c(C(C)C)c3n2)CC1` (stereo not drawn) [Example 299], the results for the IC50 in test [1], in test [2] and in test [3] were 680 nM, 6 nM and 10 nM, respectively.

Turning to `CNC1CCC(c2ccc3[nH]c(-c4cn(C)c5nccnc45)c(C(C)C)c3n2)CC1` (stereo not drawn) [Example 300], the IC50 in test [1] is 9050 nM; in test [2], 286 nM; in test [3], 48 nM.

As for `CNC1CCC(c2ccc3[nH]c(-c4cn(C)c5ncncc45)c(C(C)C)c3n2)CC1` (stereo not drawn) [Example 301], the figures for the IC50 in test [1], in test [2] and in test [3] were 4090 nM, 42 nM and 2 nM, respectively.

For the compound `CNC1CCC(c2ccc3[nH]c(-c4cn(C)c5ncccc45)c(C(C)C)c3n2)CC1` (stereo not drawn) [Example 302], the half-maximal inhibitory concentration (IC50) was determined as 739 nM in test [1], 4.9 nM in test [2] and 0.74 nM in test [3].
